Assay results: publication PMC2692895 (Journal of medicinal chemistry, 2008)
Like-named read-outs stand apart in the source and are kept apart here. Blank lines part the entries; values can stand above or below the molecule they belong to.

Experiments:
[1] = tested on: MDA-MB-231 breast cancer cell lines; conditions: cited from earlier work
Permeability by PAMPA = format: in vitro ADME
[2] = Drug metabolic stability, S9 fraction with NADPH; format: in vitro ADME
[3] = tested on: caspase-3 activation in MDA-MB-231 cells; assay: Caspase-3 activation; conditions: MDA-MB-231, 24 hours
MDA-MB-231 cells = assay: ATPLite cell viability, compound 3 and TRAIL alone or combined; format: cell-based, human; conditions: low concentrations up to 110 ng/mL, 20 hours

Molecule: COc1cc([C@@H]2c3cc4c(cc3[C@@H](O[C@@H]3O[C@@H]5CO[C@@H](C)O[C@H]5[C@H](O)[C@H]3O)[C@H]3COC(=O)[C@H]23)OCO4)cc(OC)c1O [etoposide, reference compound]
- DNA fragmentation ([1]; etoposide 5 µM): no obvious DNA fragmentation

- Permeability (2 %), class (Permeability by PAMPA): High
- half-life [2]: 14.5 min
Molecule: CN[C@@H](C)C(=O)Nc1ccc(Oc2ccc(OC)cc2)c(C(=O)NCc2csc(-c3cccs3)n2)c1 [Compound 3, (S)-2-(4-methoxyphenoxy)-5-(2-(methylamino)propanamido)-N-((2-(thiophen-2-yl)thiazol-4-yl)methyl)benzamide]
- caspase-3 activation [3]: increases caspase-3 activation

B1: TRAIL: tumor necrosis factor-related apoptosis-inducing ligand (Genentech) (protein, UniProt P50591 1-281, looked up)
Tumor necrosis factor ligand …: MAMMEVQGGPSLGQTCVLIVIFTVLLQSLCVAVTYVYFTNELKQMQDKYSKSGIACFLKEDDSYWDPNDEESMNSPCWQVKWQLRQLVRKMILRTSEETISTVQEKQQNISPLVRERGPQRVAAHITGTRGRSNTLSSPNSKNEKALGRKINSWESSRSGHSFLSNLHLRNGELVIHEKGFYYIYSQTYFRFQEEIKENTKNDKQMVQYIYKYTSYPDPILLMKSARNSCWSKDAEYGLYSIYQGGIFELKENDRIFVSVTNEHLIDMDHEASFFGAFLVG
- induction of tumor cell death, TRAIL alone (MDA-MB-231 cells): very little effects
- DNA fragmentation ([1]; TRAIL 30 ng/ml): no obvious DNA fragmentation
